Article PMC7265341, “Quantifying CDK inhibitor selectivity in live cells” (Nature Communications, 2020)
Like-named read-outs stand apart in the source and are kept apart here.

Columns and labels:
CDK16/Cyclin Y = CDK16/Cyclin Y (Homo sapiens, UniProt Q00536); assay: NanoBRET live-cell target engagement, CDK16-NanoLuc/Cyclin Y in HEK-293; format: binding; settings: CDK16/Y; read-out: IC50 (nM) Replicate 2
CDK7 = CDK7 (Homo sapiens, UniProt P50613); assay: NanoBRET live-cell target engagement, NanoLuc-CDK7 in HEK-293; format: binding; settings: CDK7
CDK13/Cyclin K = CDK13/Cyclin K (Homo sapiens, UniProt Q14004); assay: NanoBRET live-cell target engagement, CDK13-NanoLuc/Cyclin K in HEK-293; format: binding; settings: CDK13/K, 10µM
Chain of CDK13/Cyclin K (O75909 whole entry): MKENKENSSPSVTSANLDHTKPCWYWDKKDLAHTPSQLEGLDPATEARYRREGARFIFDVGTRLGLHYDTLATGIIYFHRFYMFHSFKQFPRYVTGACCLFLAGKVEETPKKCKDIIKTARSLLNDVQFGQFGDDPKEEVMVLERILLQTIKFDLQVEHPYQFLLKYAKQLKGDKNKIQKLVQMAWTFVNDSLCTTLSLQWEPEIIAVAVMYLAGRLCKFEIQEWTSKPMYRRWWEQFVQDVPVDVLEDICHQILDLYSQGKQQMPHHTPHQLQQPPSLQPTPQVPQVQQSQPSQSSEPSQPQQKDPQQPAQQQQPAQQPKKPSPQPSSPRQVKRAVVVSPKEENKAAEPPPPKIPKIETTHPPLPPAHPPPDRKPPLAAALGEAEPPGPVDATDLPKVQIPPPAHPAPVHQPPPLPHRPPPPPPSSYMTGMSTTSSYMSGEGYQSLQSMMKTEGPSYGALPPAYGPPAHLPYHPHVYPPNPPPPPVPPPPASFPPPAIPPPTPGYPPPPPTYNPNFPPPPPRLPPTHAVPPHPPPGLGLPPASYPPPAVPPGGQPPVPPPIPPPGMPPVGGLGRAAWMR
Chain of CDK13/Cyclin K (Q14004 other isoform, or with tags, fused parts or gaps): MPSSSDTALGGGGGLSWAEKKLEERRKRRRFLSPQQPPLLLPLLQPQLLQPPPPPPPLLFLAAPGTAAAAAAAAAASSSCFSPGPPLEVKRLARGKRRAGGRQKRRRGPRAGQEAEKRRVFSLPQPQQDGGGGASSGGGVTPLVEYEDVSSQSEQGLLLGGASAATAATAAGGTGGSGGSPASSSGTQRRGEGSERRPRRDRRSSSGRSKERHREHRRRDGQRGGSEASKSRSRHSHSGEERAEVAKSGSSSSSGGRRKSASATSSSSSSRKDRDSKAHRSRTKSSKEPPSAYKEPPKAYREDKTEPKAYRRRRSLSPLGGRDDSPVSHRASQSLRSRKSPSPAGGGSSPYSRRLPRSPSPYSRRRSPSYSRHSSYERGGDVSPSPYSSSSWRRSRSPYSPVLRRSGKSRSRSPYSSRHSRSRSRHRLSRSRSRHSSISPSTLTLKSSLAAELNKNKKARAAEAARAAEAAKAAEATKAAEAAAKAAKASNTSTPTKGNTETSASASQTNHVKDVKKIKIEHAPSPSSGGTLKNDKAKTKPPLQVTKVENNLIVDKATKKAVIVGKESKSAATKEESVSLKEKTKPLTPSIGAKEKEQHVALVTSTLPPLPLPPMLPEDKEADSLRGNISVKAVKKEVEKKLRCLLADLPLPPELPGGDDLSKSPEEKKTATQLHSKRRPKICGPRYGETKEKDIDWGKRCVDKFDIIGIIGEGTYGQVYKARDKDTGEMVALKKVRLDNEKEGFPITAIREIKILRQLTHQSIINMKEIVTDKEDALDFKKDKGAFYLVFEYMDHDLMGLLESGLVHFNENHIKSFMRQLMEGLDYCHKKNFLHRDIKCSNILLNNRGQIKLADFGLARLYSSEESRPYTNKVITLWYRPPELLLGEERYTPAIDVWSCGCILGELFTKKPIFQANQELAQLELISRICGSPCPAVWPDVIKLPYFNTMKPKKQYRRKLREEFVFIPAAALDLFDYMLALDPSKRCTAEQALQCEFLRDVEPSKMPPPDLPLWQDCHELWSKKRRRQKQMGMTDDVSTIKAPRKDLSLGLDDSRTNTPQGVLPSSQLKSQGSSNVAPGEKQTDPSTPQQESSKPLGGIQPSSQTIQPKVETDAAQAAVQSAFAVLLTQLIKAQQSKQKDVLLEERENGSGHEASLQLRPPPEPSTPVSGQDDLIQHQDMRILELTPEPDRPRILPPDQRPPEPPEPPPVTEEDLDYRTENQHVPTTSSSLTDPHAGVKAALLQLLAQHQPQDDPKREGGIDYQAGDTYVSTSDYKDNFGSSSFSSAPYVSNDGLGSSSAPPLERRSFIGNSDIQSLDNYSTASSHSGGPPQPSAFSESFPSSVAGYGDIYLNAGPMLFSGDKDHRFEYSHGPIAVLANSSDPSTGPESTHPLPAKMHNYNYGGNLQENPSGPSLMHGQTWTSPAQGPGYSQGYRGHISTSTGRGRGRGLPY

CDK20/Cyclin H = CDK20/Cyclin H (Homo sapiens, UniProt Q8IZL9); assay: NanoBRET live-cell target engagement, NanoLuc-CDK20/Cyclin H in HEK-293; format: binding; settings: CDK20/H; 10µM
CDK18/Cyclin Y = CDK18/Cyclin Y (Homo sapiens, UniProt Q07002); assay: NanoBRET live-cell target engagement, CDK18-NanoLuc/Cyclin Y in HEK-293; format: binding; settings: CDK18/Y
Chain of CDK18/Cyclin Y (Q07002 whole entry): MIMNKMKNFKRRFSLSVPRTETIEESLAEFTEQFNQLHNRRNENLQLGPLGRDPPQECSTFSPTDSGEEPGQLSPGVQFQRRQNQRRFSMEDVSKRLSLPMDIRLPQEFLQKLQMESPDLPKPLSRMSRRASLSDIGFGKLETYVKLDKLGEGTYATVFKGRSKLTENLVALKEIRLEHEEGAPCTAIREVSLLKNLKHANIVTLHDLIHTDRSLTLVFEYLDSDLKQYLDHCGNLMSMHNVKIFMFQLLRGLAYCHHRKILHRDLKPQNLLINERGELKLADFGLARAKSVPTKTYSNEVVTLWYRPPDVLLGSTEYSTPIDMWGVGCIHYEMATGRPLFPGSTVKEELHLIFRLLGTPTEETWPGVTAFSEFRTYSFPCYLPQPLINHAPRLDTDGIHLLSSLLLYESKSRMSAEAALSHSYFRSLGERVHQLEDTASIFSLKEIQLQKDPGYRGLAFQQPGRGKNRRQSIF
Chain of CDK18/Cyclin Y (Q8ND76 whole entry partner): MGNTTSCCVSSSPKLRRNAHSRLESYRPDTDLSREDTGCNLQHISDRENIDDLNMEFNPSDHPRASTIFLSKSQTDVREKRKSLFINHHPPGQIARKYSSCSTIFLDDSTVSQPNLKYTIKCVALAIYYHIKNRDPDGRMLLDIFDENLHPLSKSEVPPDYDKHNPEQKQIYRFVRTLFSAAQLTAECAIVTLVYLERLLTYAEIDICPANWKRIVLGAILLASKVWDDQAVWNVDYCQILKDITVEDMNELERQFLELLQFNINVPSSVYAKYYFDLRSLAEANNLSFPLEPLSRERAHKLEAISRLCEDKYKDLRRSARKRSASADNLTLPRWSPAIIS

CDK15/Cyclin Y = CDK15/Cyclin Y (Homo sapiens, UniProt Q96Q40); assay: NanoBRET live-cell target engagement, NanoLuc-CDK15/Cyclin Y in HEK-293; format: binding; settings: CDK15/Y
Chain of CDK15/Cyclin Y (Q96Q40 whole entry): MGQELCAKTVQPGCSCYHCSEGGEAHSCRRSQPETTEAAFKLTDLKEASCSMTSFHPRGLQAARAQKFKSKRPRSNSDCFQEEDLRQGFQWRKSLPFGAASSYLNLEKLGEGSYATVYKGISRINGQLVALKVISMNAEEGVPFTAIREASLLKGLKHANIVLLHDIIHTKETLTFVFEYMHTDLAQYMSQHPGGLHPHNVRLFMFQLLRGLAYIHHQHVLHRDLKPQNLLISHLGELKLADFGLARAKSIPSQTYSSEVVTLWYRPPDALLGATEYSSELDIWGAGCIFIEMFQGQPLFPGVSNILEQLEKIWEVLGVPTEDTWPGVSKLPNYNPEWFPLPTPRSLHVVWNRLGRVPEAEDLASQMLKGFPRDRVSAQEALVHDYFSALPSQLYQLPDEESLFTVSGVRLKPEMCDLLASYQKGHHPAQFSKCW
Chain of CDK15/Cyclin Y (Q8ND76 whole entry partner): as the sequence (Q8ND76 whole entry partner) above

CDK17/Cyclin Y = CDK17/Cyclin Y (Homo sapiens, UniProt Q00537); assay: NanoBRET live-cell target engagement, CDK17-NanoLuc/Cyclin Y in HEK-293; format: binding; settings: CDK17/Y
Chain of CDK17/Cyclin Y (Q00537 whole entry): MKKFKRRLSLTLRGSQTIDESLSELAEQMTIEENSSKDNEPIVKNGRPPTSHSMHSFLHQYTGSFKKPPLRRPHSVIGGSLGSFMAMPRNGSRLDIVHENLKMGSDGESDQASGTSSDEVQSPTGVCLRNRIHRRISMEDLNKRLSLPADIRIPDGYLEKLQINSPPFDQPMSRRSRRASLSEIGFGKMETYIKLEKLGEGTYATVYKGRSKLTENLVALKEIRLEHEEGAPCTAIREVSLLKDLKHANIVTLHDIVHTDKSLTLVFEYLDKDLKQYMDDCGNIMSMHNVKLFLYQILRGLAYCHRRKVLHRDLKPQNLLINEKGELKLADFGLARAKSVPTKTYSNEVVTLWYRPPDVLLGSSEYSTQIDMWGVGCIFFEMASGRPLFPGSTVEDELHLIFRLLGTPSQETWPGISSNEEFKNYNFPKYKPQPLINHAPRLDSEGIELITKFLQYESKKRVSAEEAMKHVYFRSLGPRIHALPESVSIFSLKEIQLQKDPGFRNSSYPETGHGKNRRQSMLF
Chain of CDK17/Cyclin Y (Q8ND76 whole entry partner): as the sequence (Q8ND76 whole entry partner) above

CDK4/Cyclin D1 = CDK4/Cyclin D1 (Homo sapiens, UniProt P11802); assay: NanoBRET live-cell target engagement, NanoLuc-CDK4/Cyclin D1 in HEK-293; format: binding; settings: CDK4/D1
Chain of CDK4/Cyclin D1 (P11802 whole entry): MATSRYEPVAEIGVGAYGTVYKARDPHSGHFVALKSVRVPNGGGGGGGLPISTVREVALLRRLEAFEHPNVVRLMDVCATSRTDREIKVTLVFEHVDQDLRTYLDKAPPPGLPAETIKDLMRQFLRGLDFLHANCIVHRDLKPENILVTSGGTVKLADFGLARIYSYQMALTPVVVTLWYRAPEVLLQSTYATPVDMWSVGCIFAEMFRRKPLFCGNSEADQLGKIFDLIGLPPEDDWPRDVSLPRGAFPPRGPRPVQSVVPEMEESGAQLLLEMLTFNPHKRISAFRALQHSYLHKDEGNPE
Chain of CDK4/Cyclin D1 (P24385 whole entry partner): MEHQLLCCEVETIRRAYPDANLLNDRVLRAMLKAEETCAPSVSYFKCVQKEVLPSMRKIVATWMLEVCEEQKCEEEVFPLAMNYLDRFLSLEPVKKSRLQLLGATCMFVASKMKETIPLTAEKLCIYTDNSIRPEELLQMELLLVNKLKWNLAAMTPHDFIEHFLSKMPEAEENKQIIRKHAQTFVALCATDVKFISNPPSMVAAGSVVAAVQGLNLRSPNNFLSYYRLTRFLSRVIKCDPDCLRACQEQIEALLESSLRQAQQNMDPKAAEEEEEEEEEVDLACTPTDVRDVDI

CDK9/Cyclin K = CDK9/Cyclin K (Homo sapiens, UniProt P50750); assay: NanoBRET live-cell target engagement, NanoLuc-CDK9/Cyclin K in HEK-293; format: binding; settings: CDK9/K, 10µM
CDK12/Cyclin K = CDK12/Cyclin K (Homo sapiens, UniProt Q9NYV4); assay: NanoBRET live-cell target engagement, CDK12-NanoLuc/Cyclin K in HEK-293; format: binding; settings: CDK12/K, 10µM
CDK10/Cyclin L2 = CDK10/Cyclin L2 (Homo sapiens, UniProt Q15131); assay: NanoBRET live-cell target engagement, CDK10-NanoLuc/Cyclin L2 in HEK-293; settings: CDK10/L2
Chain of CDK10/Cyclin L2 (Q15131 whole entry): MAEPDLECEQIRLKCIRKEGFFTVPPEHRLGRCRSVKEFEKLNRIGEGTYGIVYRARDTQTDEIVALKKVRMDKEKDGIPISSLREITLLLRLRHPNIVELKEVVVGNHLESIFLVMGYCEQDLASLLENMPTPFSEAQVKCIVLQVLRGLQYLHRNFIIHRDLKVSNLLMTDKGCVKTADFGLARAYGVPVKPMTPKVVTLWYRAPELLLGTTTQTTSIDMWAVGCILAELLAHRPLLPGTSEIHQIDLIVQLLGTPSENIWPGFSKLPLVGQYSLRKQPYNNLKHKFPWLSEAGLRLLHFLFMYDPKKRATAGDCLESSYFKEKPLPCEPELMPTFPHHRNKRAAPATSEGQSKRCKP

[1] = n=3 average ± SEM, n=2 average to 2 significant figures, read-out: IC50 (nM) Average*
[2] = read-out: IC50 (nM) Replicate 1
[3] = read-out: IC50 (nM) Replicate 2

CNC1CCN(C(=O)c2ccc(Nc3ncc(F)c(-c4cnc(C)n4C(C)C)n3)cc2)C1 (stereo not drawn) [AZD5597]
IC50 (CDK16/Cyclin Y): 18 nM | Inhibition at 10µM (%) Replicate 1 (CDK7; 10µM): 95.4% | Inhibition at 10µM (%) Replicate 2 (CDK7; 10µM): 93.6% | Inhibition at 10µM (%) Average (CDK7; 10µM, average of replicates): 94.5% | IC50 (CDK7; [1]): 120 nM | IC50 (CDK7; [2]): 100 nM | IC50 (CDK7; [3]): 150 nM | Inhibition at 10µM (%) Replicate 1 (CDK13/Cyclin K): 42.5% | Inhibition at 10µM (%) Replicate 2 (CDK13/Cyclin K): 57.5% | Inhibition at 10µM (%) Average (CDK13/Cyclin K; average of replicates): 50.0% | Inhibition at 10µM (%) Replicate 1 (CDK20/Cyclin H): 68.9% | Inhibition at 10µM (%) Replicate 2 (CDK20/Cyclin H): 74.8% | Inhibition at 10µM (%) Replicate 1 (CDK18/Cyclin Y; 10µM): 94.0% | Inhibition at 10µM (%) Replicate 2 (CDK18/Cyclin Y; 10µM): 101.0% | Inhibition at 10µM (%) Average (CDK18/Cyclin Y; 10µM, average of replicates): 97.5% | IC50 (CDK18/Cyclin Y; [1]): 130 nM | IC50 (CDK18/Cyclin Y; [2]): 86 nM | IC50 (CDK18/Cyclin Y; [3]): 174 nM | Inhibition at 10µM (%) Replicate 1 (CDK15/Cyclin Y; 10µM): 93.9% | Inhibition at 10µM (%) Replicate 2 (CDK15/Cyclin Y; 10µM): 95.6% | Inhibition at 10µM (%) Average (CDK15/Cyclin Y; 10µM, average of replicates): 94.7% | IC50 (CDK15/Cyclin Y; [1]): 300 nM | IC50 (CDK15/Cyclin Y; [2]): 250 nM | IC50 (CDK15/Cyclin Y; [3]): 350 nM | Inhibition at 10µM (%) Replicate 1 (CDK17/Cyclin Y; 10µM): 90.9% | Inhibition at 10µM (%) Replicate 2 (CDK17/Cyclin Y; 10µM): 91.8% | Inhibition at 10µM (%) Average (CDK17/Cyclin Y; 10µM, average of replicates): 91.3% | IC50 (CDK17/Cyclin Y; [1]): 10 nM | IC50 (CDK17/Cyclin Y; [2]): 6.5 nM | IC50 (CDK17/Cyclin Y; [3]): 13 nM | Inhibition at 10µM (%) Replicate 1 (CDK4/Cyclin D1; 10µM): 101.0% | Inhibition at 10µM (%) Replicate 2 (CDK4/Cyclin D1; 10µM): 98.2% | Inhibition at 10µM (%) Average (CDK4/Cyclin D1; 10µM, average of replicates): 99.6% | IC50 (CDK4/Cyclin D1; [1]): 7 nM | IC50 (CDK4/Cyclin D1; [2]): 7.4 nM | IC50 (CDK4/Cyclin D1; [3]): 6.6 nM | Inhibition at 10µM (%) Replicate 1 (CDK9/Cyclin K): 98.2% | Inhibition at 10µM (%) Replicate 2 (CDK9/Cyclin K): 100.7% | Inhibition at 10µM (%) Average (CDK9/Cyclin K; average of replicates): 99.5% | Inhibition at 10µM (%) Replicate 1 (CDK12/Cyclin K): 44.4% | Inhibition at 10µM (%) Replicate 2 (CDK12/Cyclin K): 42.5% | Inhibition at 10µM (%) Average (CDK12/Cyclin K; average of replicates): 43.5% | Inhibition at 10µM (%) Replicate 1 (CDK10/Cyclin L2; 10µM): 85.6% | Inhibition at 10µM (%) Replicate 2 (CDK10/Cyclin L2; 10µM): 87.4% | Inhibition at 10µM (%) Average (CDK10/Cyclin L2; 10µM, average of replicates): 86.5% | IC50 (CDK10/Cyclin L2; read-out: IC50 (nM) Average*, n=3 average ± SEM, n=2 average to 2 significant figures): 520 nM | IC50 (CDK10/Cyclin L2; [2]): 450 nM | IC50 (CDK10/Cyclin L2; [3]): 580 nM
